Values after ≈ are worked out from the molar mass of the structure shown.
Assays:
[1] = test system: Candida albicans; assay: Antifungal activity against early stage preformed Candida albicans ATCC 10231 biofilm by XTT reduction assay; type: functional
[2] = test system: Candida albicans; assay: Antifungal activity against planktonically grown Candida albicans ATCC 10231 by CLSI M27 A3 broth microdilution method; type: functional
[3] = test system: Candida albicans; assay: Antifungal activity against mature preformed Candida albicans ATCC 10231 biofilm by XTT reduction assay; type: functional
[4] = test system: Candida albicans; assay: Inhibition of biofilm formation of Candida albicans ATCC 10231 by XTT reduction assay; type: functional
[5] = in vitro; conditions: human, NCI-H292 cells
Description: Cytotoxicity against human NCI-H292 cells assessed as reduction in viable cells by MTT assay

[6] = test system: Candida albicans; assay: Ratio of compound MIC to fluconazole MIC for biofilm formation of Candida albicans ATCC 10231 by XTT reduction assay; type: functional

| Structure (SMILES) | MIC50 [1] [µg/mL] | MIC50 [2] [µg/mL] | MIC50 [3] [µg/mL] | MIC50 [4] [µg/mL] | CC50 [5] [µg/mL] | Ratio [6] |
| --- | --- | --- | --- | --- | --- | --- |
| CCCOC(=O)/C=C/c1ccc(O)c(O)c1 | 256 (≈ 1150 µM) | 128 (≈ 576 µM) | 256 (≈ 1150 µM) | 256 (≈ 1150 µM) |  |  |
| COc1ccc(OC(=O)/C=C/c2ccc(O)c(O)c2)cc1F |  | 128 (≈ 421 µM) | 256 (≈ 841 µM) | 256 (≈ 841 µM) |  |  |
| O=C(/C=C/c1ccc(O)c(O)c1)OCc1ccc([N+](=O)[O-])o1 | 64 (≈ 210 µM) | 16 (≈ 52.4 µM) | 128 (≈ 419 µM) | 32 (≈ 105 µM) | 192 (≈ 627 µM) |  |
| O=C(/C=C/c1ccccc1)OCc1ccc([N+](=O)[O-])o1 | 32 (≈ 117 µM) | 2 (≈ 7.32 µM) | 64 (≈ 234 µM) | 32 (≈ 117 µM) | 174 (≈ 638 µM) |  |
| O=C(CCc1ccc(O)c(O)c1)OCc1ccc([N+](=O)[O-])o1 | 128 (≈ 417 µM) | 64 (≈ 208 µM) | 128 (≈ 417 µM) | 128 (≈ 417 µM) | 257 (≈ 835 µM) |  |
| O=C(OCc1ccc([N+](=O)[O-])o1)c1ccc(O)c(O)c1 | 64 (≈ 229 µM) | 16 (≈ 57.3 µM) | 64 (≈ 229 µM) | 16 (≈ 57.3 µM) | 132 (≈ 473 µM) | 8 |
| CC(C)COC(=O)/C=C/c1ccc(O)c(O)c1 |  | 128 (≈ 542 µM) | 256 (≈ 1080 µM) | 256 (≈ 1080 µM) |  |  |
| O=C(O)/C=C/c1ccc(O)c(O)c1 [CAFFEIC ACID] | 256 (≈ 1420 µM) | 128 (≈ 710 µM) | 256 (≈ 1420 µM) | 256 (≈ 1420 µM) |  |  |
| CCOC(=O)/C=C/c1ccc(O)c(O)c1 [ETHYL CAFFEATE] |  | 128 (≈ 615 µM) | 256 (≈ 1230 µM) | 256 (≈ 1230 µM) |  |  |
| OC(Cn1cncn1)(Cn1cncn1)c1ccc(F)cc1F [FLUCONAZOLE] | 256 (≈ 836 µM) | 0.5 (≈ 1.63 µM) | 256 (≈ 836 µM) | 128 (≈ 418 µM) |  |  |
| COC(=O)/C=C/c1ccc(O)c(O)c1 [METHYLCAFFEATE] |  | 128 (≈ 659 µM) | 256 (≈ 1320 µM) | 256 (≈ 1320 µM) |  |  |

From ChEMBL document CHEMBL3124821, “Activity of caffeic acid derivatives against Candida albicans biofilm” (Bioorg Med Chem Lett, 2014)
